Where two headings read alike, the source gives them in different places.
Tests used:
visceral leishmaniasis = assay: Treatment of visceral leishmaniasis in patients with oral 1-MT; type: in vivo
Text: Patients present with symptoms of fever and organomegaly of long standing that is unresponsive to standard treatment, possibly with attendant anemia and pancytopenia, with a history of travel in an area in which leishmaniasis is known to be endemic. Laboratory tests confirm a diagnosis of visceral […]. […] Patients present with symptoms of fever and organomegaly of long standing that is unresponsive to standard treatment, possibly with attendant anemia and pancytopenia, with a history of travel in an area in which leishmaniasis is known to be endemic. Laboratory tests confirm a diagnosis of visceral leishmaniasis. […] Patients present with symptoms of fever and organomegaly of long standing that is unresponsive to standard treatment, possibly with attendant anemia and pancytopenia, with a history of travel in an area in which leishmaniasis is known to be endemic. Laboratory tests confirm a diagnosis of visceral leishmaniasis.

T. gondii = conditions: mouse, in vivo
[1] = tested on: Leishmania major clone V1 (MHOM/IL/80/Friedlin)
Procedure: (B) Parasite burden. Quantification of parasite outgrowth from titrations of ear tissue lysates was performed at the indicated times. Values shown are means+SE of 6 mice/group. […] The effect of IDO inhibition during cutaneous leishmaniasis on antigen-specific cytokine production. […] (F) IL-10. Cytokines were quantified by ELISA in the supernatants of soluble L. major antigen-stimulated cells isolated from draining lymph nodes 4 wk after infection. Values shown are means+SE of 6 mice/group. *P<0.05.
Lesion size was quantified with a vernier caliper. Parasite burden was quantified by determining the highest dilution of ear tissue lysates in which promastigote outgrowth could be detected out after 7 days of incubation. […] Cells isolated from lymph nodes draining lesions were incubated with L major promastigote lysates.
Cytokines were quantified by ELISA in culture supernatants harvested 48 h later.

[2] = L. major antigen-stimulated, ELISA, 4 wk after infection, vs untreated
[3] = early phase of parasite clearance (4 wk after infection), CCA assay

Text for T. gondii (ME49 strain): (B) Parasite burden. […] (C) Serum IFN-γ. (D) Serum TNF-α. (E) Serum IL-10. Systemic cytokine production was quantified by the CCA assay 30 d after infection. […] Values shown are means±SE of 8 mice/group. (F) Kinetic analysis of parasite burden in the experiment depicted in FIG. 1A. […] (G) IL-12/23p40 mRNA. (H) IFN-γ mRNA. (I) TNF-α mRNA. (J) IL-10 mRNA. Cytokine mRNA was quantified in brain by qRT-PCR 30 d after infection.
To evaluate parasite load, infected animals were killed and the number of T. gondii cysts present in brain homogenates from these animals were counted.

With Cn1cc(C[C@H](N)C(=O)O)c2ccccc21 [1-MT, 1-methyl tryptophan] the “amelioration of symptoms of visceral leishmaniasis” value (visceral leishmaniasis; oral 1-MT 12.5-75 mg/kg/day with a drug such as amphotericin at less than usual doses, Example 4) was “equivalent to that achieved with standard drug therapy alone”, the “amelioration of symptoms of visceral leishmaniasis” value (visceral leishmaniasis; oral 1-MT 12.5-75 mg/kg/day with a drug such as amphotericin at normal doses, Example 3) was “more rapid than that observed with standard drug therapy alone” and the “symptoms of visceral leishmaniasis” value (visceral leishmaniasis; oral 1-MT approximately 12.5-75 mg/kg/day alone, Example 2) was “Amelioration of symptoms is observed”. For the same molecule, the “serum levels of IFN-γ, TNF-α and IL-10” value (T. gondii (ME49 strain); CCA assay, 30 d after infection, vs control) was “No significant alteration”, the mortality (T. gondii (ME49 strain); T. gondii-infected mice given 1-MT, FIG. 1A) was 100% and the “mRNA expression of IL-12/23p40, IFN-γ, TNF-α and IL-10 in the central nervous system” value (T. gondii (ME49 strain); qRT-PCR in brain, 30 d after infection, vs control) was “lack of biologically important changes”. The mortality (T. gondii (ME49 strain); second independent experiment, not pictured, 1-MT vs control) was 100%, the “disease course and mortality” value (T. gondii) was “reactivation of disease and increased mortality” and the “local and systemic production of inflammatory mediators” value (T. gondii) was “relatively little differences”. For the same molecule, the “serum levels of IL-4” value ([1]; 1-MT treated vs untreated infected mice, data not shown) was “no differences”, the “IFN-γ protein produced by cells from draining lymph nodes” value [1, 2] was “Relatively more” and the “IL-10 produced by T cells from draining lymph nodes” value [1, 2] was “relatively less”. For the same molecule, the “serum IFN-γ” value [1, 3] was “significantly increased”, the “serum IL-10 concentrations” value [1, 3] was “decreased” and the lesional size ([1]; first weeks after infection while lesion size increasing, vs untreated) was “No overt differences”. The lesional size ([1]; post apex period, weeks 4-12 post infection, vs untreated) was “significantly smaller” and the parasite burden ([1]; weeks 4 through 12 post infection, vs controls, FIG. 4B) was “significantly lower”.
